How the values were obtained:
PFPK5(P.falciparum) = biological target: T1, PFPK5(P.falciparum) (Plasmodium falciparum, UniProt P61075); experiment: biochemical; conditions: competition binding; read-out: %Ctrl @ 1000nM
T1 construct: gene CRK2

MAP3K4 = MAP3K4 (Homo sapiens, UniProt Q9Y6R4); experiment: biochemical; conditions: read-out: %Ctrl @ 1000nM
p38-delta = biological target: T2, p38-delta (Homo sapiens, UniProt O15264); experiment: biochemical; conditions: read-out: %Ctrl @ 1000nM
T2 construct: gene MAPK13

TRKA = biological target: T3, TRKA (Homo sapiens, UniProt P04629); experiment: biochemical; conditions: read-out: %Ctrl @ 1000nM
T3 construct: gene NTRK1

[1] = biological target: ABL1(Q252H)-phosphorylated (Homo sapiens, UniProt P00519, Q252H); experiment: biochemical; conditions: read-out: %Ctrl @ 1000nM
EPHB2 = EPHB2 (Homo sapiens, UniProt P29323); experiment: biochemical; conditions: read-out: %Ctrl @ 1000nM
BRAF(V600E) = BRAF(V600E) (Homo sapiens, UniProt P15056, V600E); experiment: biochemical; conditions: read-out: %Ctrl @ 1000nM
HCK = HCK (Homo sapiens, UniProt P08631); experiment: biochemical; conditions: read-out: %Ctrl @ 1000nM
PIK3C2G = PIK3C2G (Homo sapiens, UniProt O75747); experiment: biochemical; conditions: read-out: %Ctrl @ 1000nM
[2] = biological target: JAK1(JH2domain-pseudokinase) (Homo sapiens, UniProt P23458); experiment: biochemical; conditions: read-out: %Ctrl @ 1000nM
ERBB4 = ERBB4 (Homo sapiens, UniProt Q15303); experiment: biochemical; conditions: read-out: %Ctrl @ 1000nM
CSF1R = CSF1R (Homo sapiens, UniProt P07333); experiment: biochemical; conditions: read-out: %Ctrl @ 1000nM
ITK = ITK (Homo sapiens, UniProt Q08881); experiment: biochemical; conditions: read-out: %Ctrl @ 1000nM
PRKR = biological target: T4, PRKR (Homo sapiens, UniProt P19525); experiment: biochemical; conditions: read-out: %Ctrl @ 1000nM
T4 construct: gene EIF2AK2

MAP3K3 = MAP3K3 (Homo sapiens, UniProt Q99759); experiment: biochemical; conditions: read-out: %Ctrl @ 1000nM
ALK(L1196M) = ALK(L1196M) (Homo sapiens, UniProt Q9UM73, L1196M); experiment: biochemical; conditions: read-out: %Ctrl @ 1000nM
MAP3K15 = MAP3K15 (Homo sapiens, UniProt Q6ZN16); experiment: biochemical; conditions: read-out: %Ctrl @ 1000nM
ABL1-phosphorylated = ABL1-phosphorylated (Homo sapiens, UniProt P00519); experiment: biochemical; conditions: read-out: %Ctrl @ 1000nM
PIK3CA(E545A) = PIK3CA(E545A) (Homo sapiens, UniProt P42336, E545A); experiment: biochemical; conditions: read-out: %Ctrl @ 1000nM
CDK4-cyclinD3 = CDK4-cyclinD3 (Homo sapiens, UniProt P11802); experiment: biochemical; conditions: read-out: %Ctrl @ 1000nM
IRAK4 = IRAK4 (Homo sapiens, UniProt Q9NWZ3); experiment: biochemical; conditions: read-out: %Ctrl @ 1000nM
FYN = FYN (Homo sapiens, UniProt P06241); experiment: biochemical; conditions: read-out: %Ctrl @ 1000nM
NEK5 = NEK5 (Homo sapiens, UniProt Q6P3R8); experiment: biochemical; conditions: read-out: %Ctrl @ 1000nM
PIK3CA(C420R) = PIK3CA(C420R) (Homo sapiens, UniProt P42336, C420R); experiment: biochemical; conditions: read-out: %Ctrl @ 1000nM
PRKG2 = PRKG2 (Homo sapiens, UniProt Q13237); experiment: biochemical; conditions: read-out: %Ctrl @ 1000nM
TNK1 = TNK1 (Homo sapiens, UniProt Q13470); experiment: biochemical; conditions: read-out: %Ctrl @ 1000nM
[3] = biological target: JAK2(JH1domain-catalytic) (Homo sapiens, UniProt O60674); experiment: biochemical; conditions: read-out: %Ctrl @ 1000nM
EGFR(L861Q) = EGFR(L861Q) (Homo sapiens, UniProt P00533, L861Q); experiment: biochemical; conditions: read-out: %Ctrl @ 1000nM
CAMK4 = CAMK4 (Homo sapiens, UniProt Q16566); experiment: biochemical; conditions: read-out: %Ctrl @ 1000nM
MAPKAPK2 = MAPKAPK2 (Homo sapiens, UniProt P49137); experiment: biochemical; conditions: read-out: %Ctrl @ 1000nM
RET = RET (Homo sapiens, UniProt P07949); experiment: biochemical; conditions: read-out: %Ctrl @ 1000nM
CDK9 = CDK9 (Homo sapiens, UniProt P50750); experiment: biochemical; conditions: read-out: %Ctrl @ 1000nM
PFCDPK1(P.falciparum) = biological target: T5, PFCDPK1(P.falciparum) (Plasmodium falciparum, UniProt P62344); experiment: biochemical; conditions: competition binding; read-out: %Ctrl @ 1000nM
T5 construct: gene CDPK1

CDK11 = CDK11 (Homo sapiens, UniProt Q9BWU1); experiment: KINOMEscan binding constant, CDK11; conditions: read-out: Binding affinity (Kd, nM) CDK11

Sequence of HCK (P08631 whole entry): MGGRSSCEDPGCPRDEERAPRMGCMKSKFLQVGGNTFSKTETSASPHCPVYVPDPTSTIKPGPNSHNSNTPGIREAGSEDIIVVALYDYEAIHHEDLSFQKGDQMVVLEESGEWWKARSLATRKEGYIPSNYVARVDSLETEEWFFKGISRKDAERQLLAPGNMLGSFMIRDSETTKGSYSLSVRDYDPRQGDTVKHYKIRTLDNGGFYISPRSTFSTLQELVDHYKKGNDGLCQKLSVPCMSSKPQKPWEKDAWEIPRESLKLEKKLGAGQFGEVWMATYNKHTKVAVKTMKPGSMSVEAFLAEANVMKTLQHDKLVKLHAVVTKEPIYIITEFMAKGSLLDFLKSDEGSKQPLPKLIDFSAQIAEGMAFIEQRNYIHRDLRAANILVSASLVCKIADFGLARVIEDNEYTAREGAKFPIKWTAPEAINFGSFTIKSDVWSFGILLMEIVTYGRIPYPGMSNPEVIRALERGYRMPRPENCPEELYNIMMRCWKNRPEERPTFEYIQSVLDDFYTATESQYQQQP
Sequence of TNK1 (Q13470 whole entry): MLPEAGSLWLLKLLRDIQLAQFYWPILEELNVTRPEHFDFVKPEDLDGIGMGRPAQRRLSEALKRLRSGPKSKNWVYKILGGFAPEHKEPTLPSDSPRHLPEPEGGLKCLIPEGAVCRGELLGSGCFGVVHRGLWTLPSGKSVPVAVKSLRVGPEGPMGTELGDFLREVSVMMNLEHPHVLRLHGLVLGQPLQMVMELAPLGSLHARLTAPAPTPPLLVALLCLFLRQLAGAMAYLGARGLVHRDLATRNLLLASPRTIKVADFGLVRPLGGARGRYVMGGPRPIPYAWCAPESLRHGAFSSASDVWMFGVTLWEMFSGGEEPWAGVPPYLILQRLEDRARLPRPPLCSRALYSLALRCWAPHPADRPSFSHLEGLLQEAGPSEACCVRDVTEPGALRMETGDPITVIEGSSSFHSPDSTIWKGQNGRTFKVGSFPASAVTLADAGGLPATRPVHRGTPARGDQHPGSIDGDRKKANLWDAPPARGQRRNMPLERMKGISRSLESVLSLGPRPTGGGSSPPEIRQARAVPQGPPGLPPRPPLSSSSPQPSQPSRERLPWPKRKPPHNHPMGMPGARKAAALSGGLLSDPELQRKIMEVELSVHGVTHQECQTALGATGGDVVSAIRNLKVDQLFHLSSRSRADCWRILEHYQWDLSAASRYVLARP
Sequence of FYN (P06241 whole entry): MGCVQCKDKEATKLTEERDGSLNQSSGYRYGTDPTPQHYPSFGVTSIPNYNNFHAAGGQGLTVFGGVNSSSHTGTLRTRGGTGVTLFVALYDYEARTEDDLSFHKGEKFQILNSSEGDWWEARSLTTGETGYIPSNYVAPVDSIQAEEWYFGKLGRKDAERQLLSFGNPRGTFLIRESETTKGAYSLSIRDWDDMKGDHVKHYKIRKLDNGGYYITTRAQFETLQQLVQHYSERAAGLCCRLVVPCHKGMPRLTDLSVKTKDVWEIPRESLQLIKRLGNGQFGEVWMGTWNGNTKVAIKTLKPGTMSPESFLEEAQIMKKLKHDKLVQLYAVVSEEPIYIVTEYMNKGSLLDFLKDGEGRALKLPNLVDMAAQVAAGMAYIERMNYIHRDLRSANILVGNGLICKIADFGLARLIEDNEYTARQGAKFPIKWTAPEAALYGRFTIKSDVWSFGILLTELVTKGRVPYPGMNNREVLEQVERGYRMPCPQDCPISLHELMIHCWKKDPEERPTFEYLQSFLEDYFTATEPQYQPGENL
T3 sequence (P04629 whole entry): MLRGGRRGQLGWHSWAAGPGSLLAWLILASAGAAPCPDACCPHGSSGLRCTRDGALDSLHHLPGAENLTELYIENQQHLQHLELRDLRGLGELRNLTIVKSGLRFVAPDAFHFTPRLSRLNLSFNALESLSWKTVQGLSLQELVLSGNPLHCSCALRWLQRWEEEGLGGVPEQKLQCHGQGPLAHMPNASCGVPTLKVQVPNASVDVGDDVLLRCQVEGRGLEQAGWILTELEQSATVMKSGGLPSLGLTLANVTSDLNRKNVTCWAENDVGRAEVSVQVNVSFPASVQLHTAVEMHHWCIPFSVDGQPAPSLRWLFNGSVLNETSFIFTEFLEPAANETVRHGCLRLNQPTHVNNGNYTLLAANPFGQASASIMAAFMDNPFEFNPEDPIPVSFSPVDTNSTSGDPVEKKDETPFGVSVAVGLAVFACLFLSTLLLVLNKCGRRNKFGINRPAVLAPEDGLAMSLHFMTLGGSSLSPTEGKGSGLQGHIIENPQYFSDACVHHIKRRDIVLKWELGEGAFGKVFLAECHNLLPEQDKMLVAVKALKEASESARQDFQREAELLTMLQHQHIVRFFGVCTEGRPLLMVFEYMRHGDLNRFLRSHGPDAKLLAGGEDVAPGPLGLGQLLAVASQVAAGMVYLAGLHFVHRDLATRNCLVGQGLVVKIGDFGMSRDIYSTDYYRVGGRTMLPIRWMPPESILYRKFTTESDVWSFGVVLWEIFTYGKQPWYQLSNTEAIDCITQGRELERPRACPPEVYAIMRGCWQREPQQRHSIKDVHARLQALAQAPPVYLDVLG
Sequence of MAP3K3 (Q99759 whole entry): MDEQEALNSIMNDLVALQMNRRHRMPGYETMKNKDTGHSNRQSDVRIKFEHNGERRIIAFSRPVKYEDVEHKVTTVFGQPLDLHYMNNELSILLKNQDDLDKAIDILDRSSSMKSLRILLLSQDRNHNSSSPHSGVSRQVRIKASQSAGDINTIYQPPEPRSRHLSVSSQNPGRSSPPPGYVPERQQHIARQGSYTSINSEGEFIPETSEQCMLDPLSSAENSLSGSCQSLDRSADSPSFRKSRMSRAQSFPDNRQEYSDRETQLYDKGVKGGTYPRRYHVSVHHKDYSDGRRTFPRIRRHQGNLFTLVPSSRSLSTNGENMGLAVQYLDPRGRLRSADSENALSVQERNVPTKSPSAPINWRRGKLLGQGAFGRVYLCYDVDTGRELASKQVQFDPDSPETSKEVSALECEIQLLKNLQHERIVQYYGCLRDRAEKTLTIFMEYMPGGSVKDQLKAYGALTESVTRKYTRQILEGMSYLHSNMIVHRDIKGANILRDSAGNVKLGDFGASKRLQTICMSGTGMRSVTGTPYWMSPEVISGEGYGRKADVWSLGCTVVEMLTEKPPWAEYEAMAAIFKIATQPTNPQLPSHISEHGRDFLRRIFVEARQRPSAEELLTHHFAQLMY
Sequence of EPHB2 (P29323 whole entry): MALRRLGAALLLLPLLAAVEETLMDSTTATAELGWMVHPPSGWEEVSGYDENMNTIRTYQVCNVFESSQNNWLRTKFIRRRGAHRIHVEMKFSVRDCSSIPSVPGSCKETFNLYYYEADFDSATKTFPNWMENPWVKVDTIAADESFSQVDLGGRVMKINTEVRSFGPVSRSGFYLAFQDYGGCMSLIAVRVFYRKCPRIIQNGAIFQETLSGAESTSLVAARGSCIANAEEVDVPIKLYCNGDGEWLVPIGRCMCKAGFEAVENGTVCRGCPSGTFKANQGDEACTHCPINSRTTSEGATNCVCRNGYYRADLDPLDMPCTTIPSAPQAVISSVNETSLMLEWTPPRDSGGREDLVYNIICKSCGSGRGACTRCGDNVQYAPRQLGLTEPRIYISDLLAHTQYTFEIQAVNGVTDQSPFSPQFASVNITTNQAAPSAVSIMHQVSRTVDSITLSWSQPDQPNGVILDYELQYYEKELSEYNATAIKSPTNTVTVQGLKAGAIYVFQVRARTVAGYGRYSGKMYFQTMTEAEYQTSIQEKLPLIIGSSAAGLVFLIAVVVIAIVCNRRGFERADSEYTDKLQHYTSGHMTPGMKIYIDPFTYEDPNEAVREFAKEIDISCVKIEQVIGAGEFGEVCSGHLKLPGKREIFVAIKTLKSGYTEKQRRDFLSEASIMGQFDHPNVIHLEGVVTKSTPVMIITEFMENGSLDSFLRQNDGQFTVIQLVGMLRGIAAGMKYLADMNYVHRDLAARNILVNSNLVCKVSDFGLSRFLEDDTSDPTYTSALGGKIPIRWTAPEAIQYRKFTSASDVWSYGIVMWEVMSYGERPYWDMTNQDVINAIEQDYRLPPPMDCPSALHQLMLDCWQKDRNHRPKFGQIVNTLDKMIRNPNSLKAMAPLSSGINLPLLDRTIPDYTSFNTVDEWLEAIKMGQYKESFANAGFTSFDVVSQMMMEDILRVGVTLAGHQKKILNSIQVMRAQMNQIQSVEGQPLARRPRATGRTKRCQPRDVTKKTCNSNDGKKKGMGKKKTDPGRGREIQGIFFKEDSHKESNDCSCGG
Sequence of BRAF(V600E) (P15056 whole entry V600E): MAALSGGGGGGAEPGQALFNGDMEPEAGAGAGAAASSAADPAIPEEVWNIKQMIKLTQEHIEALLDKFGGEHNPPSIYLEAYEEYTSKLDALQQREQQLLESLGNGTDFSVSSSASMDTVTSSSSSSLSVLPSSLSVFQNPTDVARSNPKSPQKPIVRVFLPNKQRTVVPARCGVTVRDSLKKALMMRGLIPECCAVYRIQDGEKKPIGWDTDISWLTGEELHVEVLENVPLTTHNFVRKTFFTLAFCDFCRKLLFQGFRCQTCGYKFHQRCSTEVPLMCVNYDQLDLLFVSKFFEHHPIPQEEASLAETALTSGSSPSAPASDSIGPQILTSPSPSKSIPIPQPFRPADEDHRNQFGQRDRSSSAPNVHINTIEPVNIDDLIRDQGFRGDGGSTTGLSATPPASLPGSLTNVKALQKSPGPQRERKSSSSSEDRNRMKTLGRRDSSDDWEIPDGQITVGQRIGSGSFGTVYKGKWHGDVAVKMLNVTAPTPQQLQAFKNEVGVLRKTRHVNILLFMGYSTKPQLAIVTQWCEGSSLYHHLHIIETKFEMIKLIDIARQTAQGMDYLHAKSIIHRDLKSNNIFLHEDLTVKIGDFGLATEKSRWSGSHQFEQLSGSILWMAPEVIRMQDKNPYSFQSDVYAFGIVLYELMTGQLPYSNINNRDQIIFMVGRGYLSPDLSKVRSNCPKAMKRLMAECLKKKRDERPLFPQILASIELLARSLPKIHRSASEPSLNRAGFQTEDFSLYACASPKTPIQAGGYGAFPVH

Molecule `Cc1cn(-c2cc(NC(=O)c3ccc4c(c3)CN(c3cncnc3)C[C@@H]4C)cc(C(F)(F)F)c2)cn1` [Compound 6j] has a remaining binding at 1 µM (PFPK5(P.falciparum)) of 100%, a remaining activity at 1 µM (MAP3K4) of 56% and a remaining activity at 1 µM (p38-delta) of 70%. It also gave a remaining activity at 1 µM (TRKA) of 3.2%, a remaining activity at 1 µM [1] of 95% and a remaining activity at 1 µM (EPHB2) of 85%. The remaining activity at 1 µM (BRAF(V600E)) was 100%, the remaining activity at 1 µM (HCK) was 86% and the remaining activity at 1 µM (PIK3C2G) was 86%. The remaining activity at 1 µM [2] was 100%, the remaining activity at 1 µM (ERBB4) was 100% and the remaining activity at 1 µM (CSF1R) was 96%. The remaining activity at 1 µM (ITK) was 97%, the remaining activity at 1 µM (PRKR) was 100% and the remaining activity at 1 µM (MAP3K3) was 85%. For the same molecule, the remaining activity at 1 µM (ALK(L1196M)) was 100%, the remaining activity at 1 µM (MAP3K15) was 100% and the remaining activity at 1 µM (ABL1-phosphorylated) was 80%. The remaining activity at 1 µM (PIK3CA(E545A)) was 86%, the remaining activity at 1 µM (CDK4-cyclinD3) was 100% and the remaining activity at 1 µM (IRAK4) was 100%. For the same molecule, the remaining activity at 1 µM (FYN) was 69%, the remaining activity at 1 µM (NEK5) was 95% and the remaining activity at 1 µM (PIK3CA(C420R)) was 97%. The remaining activity at 1 µM (PRKG2) was 98%, the remaining activity at 1 µM (TNK1) was 79% and the remaining activity at 1 µM [3] was 100%. For the same molecule, the remaining activity at 1 µM (EGFR(L861Q)) was 97%, the remaining activity at 1 µM (CAMK4) was 86% and the remaining activity at 1 µM (MAPKAPK2) was 100%. For the same molecule, the remaining activity at 1 µM (RET) was 94%, the remaining activity at 1 µM (CDK9) was 92% and the remaining binding at 1 µM (PFCDPK1(P.falciparum)) was 93%. It also gave a Kd (CDK11) of 370 nM.

Reference: PMC5053573, “Structure-Based Design of Tetrahydroisoquinoline-7-carboxamides as Selective Discoidin Domain Receptor 1 (DDR1) Inhibitors” (Journal of Medicinal Chemistry, 2016)
